We go through twelve molecules from ChEMBL document CHEMBL5727610, “Cardiac glycoside analogs and their use in methods for inhibition of viral infection” (2020).

Molecules are shown by their SMILES.

This assay is described as follows: The inhibition of HCMV replication by digitoxin: The effect of digitoxin analogs on HCMV replication was tested. HFFs were infected with pp28-luciferase HCMV and treated with the compounds (Table 2, FIG. 2A). EC50, CC50 and selectivity index (SI) calculated as CC50/EC50 were determined for each compound. […] The compounds with the best SI were α-L rhamnose, α-L amicetose and mannose. Virus yield was determined for selected compounds (FIG. 2B), and a dose dependent effect on virus DNA yield was observed.
As to `CC1OC(OC2C(C)OC(OC3C(O)CC(O[C@H]4CC[C@@]5(C)[C@H](CC[C@@H]6[C@@H]5CC[C@]5(C)[C@@H](C7=CC(=O)OC7)CC[C@]65O)C4)OC3C)C(C)C2O)CC(OC2OC(C)[C@H](OC3OC(C)[C@@H](OC4OC(C)[C@@H](O)C(O)[C@@H]4O)C(O)[C@@H]3O)C(O)[C@@H]2O)C1C` (some centres not stated), the EC50 (commonly the concentration needed to bring the measured effect to its halfway point) was 233 nM.
As for `CC1OC(OC2C(O)CC(OC3C(O)CC(O[C@H]4CC[C@@]5(C)[C@H](CC[C@@H]6[C@@H]5CC[C@]5(C)[C@@H](C7=CC(=O)OC7)CC[C@]65O)C4)OC3C)OC2C)CC(OC2OC(C)[C@@H](OC3OC(C)[C@H](O)C(O)[C@H]3O)C(O)[C@H]2O)C1C` (some centres not stated), the EC50 was 210 nM.
Next, `CC1OC(OC2C(O)CC(OC3C(O)CC(O[C@H]4CC[C@@]5(C)[C@H](CC[C@@H]6[C@@H]5CC[C@]5(C)[C@@H](C7=CC(=O)OC7)CC[C@]65O)C4)OC3C)OC2C)CC(OC2OC(C)[C@H](OC3OC(C)[C@@H](O)C[C@@H]3O)C[C@@H]2O)C1C` (some centres not stated): 14.8 nM; `CC1OC(OC2C(O)CC(OC3C(O)CC(O[C@H]4CC[C@@]5(C)[C@H](CC[C@@H]6[C@@H]5CC[C@]5(C)[C@@H](C7=CC(=O)OC7)CC[C@]65O)C4)OC3C)OC2C)CC(OC2OC(C)[C@H](O)C(O)[C@@H]2O)C1C` (some centres not stated): 4.77 nM.
Next, `CC1OC(OC2C(C)OC(OC3C(O)CC(O[C@H]4CC[C@@]5(C)[C@H](CC[C@@H]6[C@@H]5CC[C@]5(C)[C@@H](C7=CC(=O)OC7)CC[C@]65O)C4)OC3C)C(C)C2O)CC(OC2OC(C)[C@@H](OC3OC(C)[C@H](OC4OC(C)[C@H](O)C(O)[C@H]4O)C(O)[C@H]3O)C(O)[C@H]2O)C1C` (some centres not stated): 322 nM; `CC1OC(OC2C(O)CC(OC3C(O)CC(O[C@H]4CC[C@@]5(C)[C@H](CC[C@@H]6[C@@H]5CC[C@]5(C)[C@@H](C7=CC(=O)OC7)CC[C@]65O)C4)OC3C)OC2C)CC(OC2OC(CO)[C@H](O)C(O)[C@@H]2O)C1C` (some centres not stated): 7.31 nM.
With `CC1OC(OC2C(O)CC(OC3C(O)CC(O[C@H]4CC[C@@]5(C)[C@H](CC[C@@H]6[C@@H]5CC[C@]5(C)[C@@H](C7=CC(=O)OC7)CC[C@]65O)C4)OC3C)OC2C)CC(OC2OC(C)[C@@H](OC3OC(C)[C@H](O)C[C@H]3O)C[C@H]2O)C1C` (some centres not stated), the EC50 was 786 nM.
Next, `CC1OC(OC2C(O)CC(OC3C(O)CC(O[C@H]4CC[C@@]5(C)[C@H](CC[C@@H]6[C@@H]5CC[C@]5(C)[C@@H](C7=CC(=O)OC7)CC[C@]65O)C4)OC3C)OC2C)CC(OC2OC(C)[C@H](OC3OC(C)[C@@H](O)C(O)[C@@H]3O)C(O)[C@@H]2O)C1C` (some centres not stated): 36.7 nM.
In the case of `CC1OC(OC2C(C)OC(OC3C(O)CC(O[C@H]4CC[C@@]5(C)[C@H](CC[C@@H]6[C@@H]5CC[C@]5(C)[C@@H](C7=CC(=O)OC7)CC[C@]65O)C4)OC3C)C(C)C2O)CC(OC2OC(C)[C@H](OC3OC(C)[C@@H](OC4OC(C)[C@@H](O)C[C@@H]4O)C[C@@H]3O)C[C@@H]2O)C1C` (some centres not stated) it was 113 nM.
Next, `CC1OC(OC2C(O)CC(OC3C(O)CC(O[C@H]4CC[C@@]5(C)[C@H](CC[C@@H]6[C@@H]5CC[C@]5(C)[C@@H](C7=CC(=O)OC7)CC[C@]65O)C4)OC3C)OC2C)CC(OC2OC(C)[C@@H](O)C(O)[C@H]2O)C1C` (some centres not stated): 26.6 nM; `CC1OC(OC2C(C)OC(OC3C(O)CC(O[C@H]4CC[C@@]5(C)[C@H](CC[C@@H]6[C@@H]5CC[C@]5(C)[C@@H](C7=CC(=O)OC7)CC[C@]65O)C4)OC3C)C(C)C2O)CC(OC2OC(C)[C@@H](OC3OC(C)[C@H](OC4OC(C)[C@H](O)C[C@H]4O)C[C@H]3O)C[C@H]2O)C1C` (some centres not stated): 2080 nM.
Regarding `CC1OC(OC2C(O)CC(OC3C(O)CC(O[C@H]4CC[C@@]5(C)[C@H](CC[C@@H]6[C@@H]5CC[C@]5(C)[C@@H](C7=CC(=O)OC7)CC[C@]65O)C4)OC3C)OC2C)CC(OC2OC(C)[C@@H](O)C[C@H]2O)C1C` (some centres not stated), the EC50 is 37.5 nM.
